In data set [1] the test system is A549 cells (human lung carcinoma cells). Kind of data set: SRB cytotoxicity assay, A549 cells. The format is cell-based. As to conditions: 72 h, SRB; for IC50: read-out: IC50 (μM) A549. The procedure:
(§1) A549 cells (human lung carcinoma cells), MCF-7 cells (human breast cancer cells), HeLa cells (human cervical cancer cells), HepG2 cells (human hepatocellular carcinoma cells), and HUVEC cells (human umbilical vein endothelial cells) were kindly provided by WeiFang Caleb Pharmaceuticals, Inc. A549 cells were cultured in Ham's F12K medium containing 10% fetal bovine serum, 2 mM L-glutamine, and 1.5 g/L sodium bicarbonate; MCF-7 cells were cultured on cell culture flask using RPMI 1640 medium with 2 mM L-glutamine adjusted to contain 1.5 g/L sodium bicarbonate, 4.5 g/L glucose, 10 mM HEPES, 1.0 mM sodium pyruvate, and 10% fetal bovine serum. Hela cells were cultured on Cell culture flask using 2 mM L-glutamine adjusted to contain 1.5 g/L sodium bicarbonate, 4.5 g/L glucose, 10 mM HEPES, and 1.0 mM sodium pyruvate in RPMI 1640 medium supplemented with 0.5 mg/ml G418 and 10% fetal bovine serum. HepG2 cells were cultured in minimum essential medium (Eagle) with 2 mM L-glutamine, Earle's BSS, 1.5 g/L sodium bicarbonate, 0.1 mM non-essential amino acids, 1.0 mM sodium pyruvate, and 10% fetal bovine serum. HUVEC cells were cultured in M199 medium containing 2 mM L-glutamine adjusted to contain 1.5 g/L sodium bicarbonate, 4.5 g/L glucose, 10 mM HEPES, 1.0 mM sodium pyruvate, ECGS, and 10% fetal bovine serum. All cells were cultured at 37°C in 5% CO2.
(§2) The cell proliferation of adherent cells was determined by sulforhodamine B assay (SRB) (Quan et al., [2009]; Li et al., [2017]). All cells were cultured in culture medium containing 10% fetal bovine serum and have been in the logarithmic growth phase. All cell types were seeded in a 96-well culture plate at a concentration of 1–5 × 10^4 cells per well at 37°C in a 5% CO2 incubator for 24 h. The cells were then exposed to seven drug concentrations of dihomooxacalix[4]arene derivatives for 72 h with each concentration located in three wells. Then, the cells were fixed with trichloroacetic acid (TCA). After washing, SRB working solution was added to the cells to […]. SRB combined with protein was dissolved in Tris base. OD values were measured for each well with a SPECTRA max 190 Cell microplate reader under 540 nm wavelength. According to the OD value, the cell growth inhibition rate was calculated.
Background: Sulforhodamine B stains cellular protein and so reports cell mass.

Data set [2] deals with MCF-7 cells (human breast cancer cells). The experiment in a line: SRB cytotoxicity assay, MCF-7 cells. The conditions noted are these: SRB; for inhibition at 10 µM: MCF7, 10 μM, 72 h; for IC50: MCF7, 72 h, read-out: IC50 (μM) MCF-7. The format is cell-based. The protocol:
as §1, §2

The subject of data set [3] is HeLa cells (human cervical cancer cells). The experiment in a line: SRB cytotoxicity assay, HeLa cells. The format is cell-based. As to conditions: 72 h, SRB; for IC50: read-out: IC50 (μM) HeLa. The procedure:
as §1, §2

Data set [4] deals with HepG2 cells (human hepatocellular carcinoma cells). Kind of data set: SRB cytotoxicity assay, HepG2 cells. The format is cell-based. The conditions noted are these: 72 h, SRB; for IC50: read-out: IC50 (μM) HepG2. The protocol: as §1, §2
Data set [5] deals with HUVEC cells (human umbilical vein endothelial cells). Kind of data set: SRB cytotoxicity assay, HUVEC normal cells. The conditions noted are these: Homo sapiens, HUVEC, 72 h, 10 μM, SRB; toxicity to normal cells. The format is cell-based. The procedure: as §1, §2
Data set [6] concerns MCF-7 cells. The experiment in a line: Flow cytometry for cell cycle analysis (PI). The format is cell-based, human. As to conditions: 3 μM, 48 h; for percentage of cells in G0/G1 phase: non-treated 61.36 ± 3.65%. The protocol:
For flow cytometric analysis of DNA content, MCF-7 cells in exponential growth were treated with compound for 48 h. The cells treated with compound were collected, washed twice with PBS, and then fixed with 75% alcohol overnight. Then, the cells were washed with PBS and resuspended in 100 μl of PBS, 200 mg/ml RNase was added for 30 min to eliminate the interference of RNA, and 20 ml/L propidium iodide (PI; Sigma) was added for 30 min. Then, the cells were washed, and the DNA content was detected by a flow cytometer (BD Accuri C6).
On the technique in general: A flow cytometer gives signals particle by particle.

In data set [7] the test system is MCF-7 cells. Kind of data set: Flow cytometry for cell apoptosis analysis (annexin V-FITC/PI). As to conditions: 48 h, non-treated 14.50 ± 0.68%. The format is cell-based, human. The procedure: MCF-7 cells (5 × 10^5 cells/ml) were seeded in six-well plates and treated with compounds at different concentrations for 48 h. The cells were then harvested by trypsinization and washed twice with cold PBS. After centrifugation and removal of the supernatants, cells were resuspended in 400 μl of 1 × binding buffer, which was then added to 5 μl of annexin V-FITC and incubated at room temperature for 15 min. After adding 10 μl of PI, the cells were incubated at room temperature for another 15 min in the dark. The stained cells were analyzed by a flow cytometer (BD Accuri C6).

Data set [8] concerns A549, MCF-7, HeLa and HepG2 cells. The experiment in a line: SRB cytotoxicity assay, four tumor cell types taken together. The format is cell-based. As to conditions: Homo sapiens, 72 h, range over A549, MCF-7, HeLa, read-out: single concentration inhibition on the four tumor cells. The procedure:
as §1, with “HepG2 cells were cultured in minimum essential medium (Eagle) with 2 mM L-glutamine, Earle's BSS, 1.5 g/L sodium bicarbonate, 0.1 mM non-essential amino acids, 1.0 mM sodium pyruvate, and 10% fetal bovine serum. HUVEC cells were cultured in M199 medium containing 2 mM L-glutamine adjusted to contain 1.5 g/L sodium bicarbonate, 4.5 g/L glucose, 10 mM HEPES, 1.0 mM sodium pyruvate, ECGS, and 10% fetal bovine serum. All cells were cultured at 37°C in 5% CO2.” left out
The cell proliferation of adherent cells was determined by sulforhodamine B assay (SRB) (Quan et al., [2009]; Li et al., [2017]). […] OD values were measured for each well with a SPECTRA max 190 Cell microplate reader under 540 nm wavelength. According to the OD value, the cell growth inhibition rate was calculated.

As for `CC(C)(C)c1cc2c(O)c(c1)Cc1cc(C(C)(C)C)cc(c1OCC(=O)NCCCCCCN)Cc1cc(C(C)(C)C)cc(c1O)Cc1cc(C(C)(C)C)cc(c1OCC(=O)NCCCCCCN)COC2` [Compound 4D, 7,13,19,25-tetra-tert-butyl-28,30-di-hydroxy-27,29-di-(N-(6-aminohexyl)-aminocarbonylmethoxyl)-2,3-dihomo-3-oxa calix[4] arene], the melting point (usually the temperature, or range, at which the solid turns liquid) lay within 123.3 to 125.9 °C. For the same compound, in data set [1], the inhibition at 10 µM was 99% and the half-inhibitory concentration (IC50) (in general, the point on the concentration scale where inhibition reaches its midpoint) came out at 0.7 ± 0.1 µM. Also, in data set [2], the inhibition at 10 µM was determined as 99% and the IC50 turned out to be 1.8 ± 0.7 µM. Further, in data set [3], the inhibition at 10 µM is 100% and the IC50 worked out at 1.9 ± 0.1 µM. For the same compound, in data set [4], the inhibition at 10 µM stood at 72% and the concentration for half-maximal inhibition (IC50) turned out to be 2.6 ± 0.2 µM. In [5], this compound registered an inhibition at 10 µM of 90%. Moreover, in [6], the “percentage of cells in G0/G1 phase” value is on record as 73.56 ± 3.95%. In addition, in data set [7] (3 μM), the apoptotic rate amounted to 33.55 ± 0.78%. The compound also showed an apoptotic rate in data set [7] (10 μM) of 61.15 ± 2.76%.
In turn, `CC(C)(C)c1cc2c(O)c(c1)Cc1cc(C(C)(C)C)cc(c1OCC(=O)NCCO)Cc1cc(C(C)(C)C)cc(c1O)Cc1cc(C(C)(C)C)cc(c1OCC(=O)NCCO)COC2` [Compound 4A, 7,13,19,25-tetra-tert-butyl-28,30-di-hydroxy-27,29-di-(N-(2-hydroxyethyl)-aminocarbonylmethoxyl)-2,3-dihomo-3-oxacalix[4]arene] registered a melting point of 139.7 to 142.3 °C. In data set [1], the inhibition at 10 µM was found to be 100% and the IC50 was determined as 2 ± 0.5 µM. In data set [2], the inhibition at 10 µM came to 100% and the IC50 came to 1 ± 0.1 µM. Besides, in data set [3], the inhibition at 10 µM came out at 100% and the IC50 turned out to be 0.8 ± 0.2 µM. In data set [4], the inhibition at 10 µM worked out at 86% and the 50% inhibitory concentration (IC50) amounted to 2.7 ± 0.4 µM. Besides, in [5], the inhibition at 10 µM is 41%. Also, the “percentage of cells in G2/M phase” value in data set [6] (non-treated 10.06 ± 0.91) is listed as 1.87 ± 2.45%. Besides, in data set [6] (non-treated 24.69 ± 6.30%), the “percentage of cells in S phase” value amounted to 20.68 ± 13.12%. The “percentage of cells in G0/G1 phase” value in data set [6] stood at 71.39 ± 11.21%. For the same compound, the apoptotic rate in data set [7] (1 μM) came to 19.63 ± 0.11%. This compound came in with an apoptotic rate in data set [7] (3 μM) of 15.40 ± 0.13%. In data set [7] (10 μM), this compound had an apoptotic rate of 40.74 ± 0.38%. In addition, the inhibition at 10 µM in data set [8] was in the range of 86 to 100%.
`CC(C)(C)c1cc2c(O)c(c1)Cc1cc(C(C)(C)C)cc(c1OCC(=O)NCCCCN)Cc1cc(C(C)(C)C)cc(c1O)Cc1cc(C(C)(C)C)cc(c1OCC(=O)NCCCCN)COC2` [Compound 4C, 7,13,19,25-tetra-tert-butyl-28,30-di-hydroxy-27,29-di-(N-(4-aminobutyl)-aminocarbonylmethoxyl)-2,3-dihomo-3-oxacalix[4] arene] yielded a melting point of 129.4 to 131.2 °C. In data set [1], the inhibition at 10 µM was found to be 42% and the concentration for half-maximal inhibition (IC50) is 3.3 ± 0.7 µM. In data set [2], the inhibition at 10 µM turned out to be 78% and the concentration for half-maximal inhibition (IC50) was determined as 5.4 ± 2.6 µM. Also, in [3], the inhibition at 10 µM was determined as 96% and the IC50 stood at 2.3 ± 0.1 µM. For the same compound, in [4], the inhibition at 10 µM turned out to be 64% and the half-maximal inhibitory concentration (IC50) turned out to be 5 ± 0.8 µM. For the same compound, the inhibition at 10 µM in data set [5] is 55%.
`CC(C)(C)c1cc2c(O)c(c1)Cc1cc(C(C)(C)C)cc(c1OCC(=O)NCCc1ccccc1)Cc1cc(C(C)(C)C)cc(c1O)Cc1cc(C(C)(C)C)cc(c1OCC(=O)NCCc1ccccc1)COC2` [Compound 4O, 7,13,19,25-tetra-tert-butyl-28,30-di-hydroxy-27,29-di-(N-phenethyl-aminocarbonylmethoxyl)-2,3-dihomo-3-oxacalix [4]arene] came in with a melting point of 114.6 to 115.9 °C. For the same compound, in [1], the inhibition at 10 µM came out at 63% and the IC50 was found to be 12.6 ± 2 µM. The compound also displayed an inhibition at 10 µM in data set [2] of 45%. The inhibition at 10 µM in data set [3] was found to be 60%. The compound further registered an inhibition at 10 µM in data set [4] of 9%. In addition, the inhibition at 10 µM in data set [5] amounted to 35%.
Regarding `CCNC(=O)COc1c2cc(C(C)(C)C)cc1Cc1cc(C(C)(C)C)cc(c1O)Cc1cc(C(C)(C)C)cc(c1OCC(=O)NCC)Cc1cc(C(C)(C)C)cc(c1O)COC2` [Compound 4H, 7,13,19,25-tetra-tert-butyl-28,30-di-hydroxy-27,29-di-(N-ethyl-aminocarbonylmethoxyl)-2,3-dihomo-3-oxacalix [4]arene], the melting point is 138.9 to 141.2 °C. The inhibition at 10 µM in data set [1] came out at 31%. Also, in data set [2], the inhibition at 10 µM is 37%. In [3], this compound registered an inhibition at 10 µM of 41%. The compound further registered an inhibition at 10 µM in [4] of 31%. This compound also yielded an inhibition at 10 µM in [5] of 6%.
Compound `CC(C)(C)c1cc2c(O)c(c1)Cc1cc(C(C)(C)C)cc3c1OCC(=O)NCCCCNC(=O)COc1c(cc(C(C)(C)C)cc1Cc1cc(C(C)(C)C)cc(c1O)C3)COC2` [Compound 4G] came in with a melting point of 157.6 to 158.7 °C. In data set [1], the inhibition at 10 µM amounted to 21%. Besides, the inhibition at 10 µM in data set [2] is 34%. The compound also came in with an inhibition at 10 µM in [3] of 40%. Besides, the inhibition at 10 µM in data set [4] amounted to 16%. The inhibition at 10 µM in data set [5] came out at 34%.
`CC(C)(C)c1cc2c(O)c(c1)Cc1cc(C(C)(C)C)cc(c1OCC(=O)N(CCO)CCO)Cc1cc(C(C)(C)C)cc(c1O)Cc1cc(C(C)(C)C)cc(c1OCC(=O)N(CCO)CCO)COC2` [Compound 4B, 7,13,19,25-tetra-tert-butyl-28,30-di-hydroxy-27,29-di-(N,N-bis(2-hydroxyethyl)-aminocarbonylmethoxyl)-2,3-dihomo−3-oxacalix[4]arene] gave a melting point of 210.7 to 212.5 °C. Also, in data set [1], the inhibition at 10 µM amounted to 66% and the half-maximal inhibitory concentration (IC50) came out at 3.9 ± 0.5 µM. For the same compound, in data set [2], the inhibition at 10 µM was found to be 73% and the IC50 came out at 4.4 ± 0.7 µM. For the same compound, in data set [3], the inhibition at 10 µM was determined as 100% and the IC50 stood at 1.1 ± 0.5 µM. In data set [4], the inhibition at 10 µM came out at 39% and the IC50 stood at 3.8 ± 0.3 µM. The compound also yielded an inhibition at 10 µM in [5] of 23%.

The record behind these values is PMC6923765, “Structural Design, Synthesis, and Preliminary Biological Evaluation of Novel Dihomooxacalix[4]arene-Based Anti-tumor Agents” (Frontiers in Chemistry, 2019).
